Non-standard residues stand in square brackets, D forms with d. Residues, ends and D or L forms follow the SMILES beside them. NMeR = CN[C@@H](CCCNC(=N)N)C(=O)O; Nle = CCCC[C@H](N)C(=O)O
Experiments:
[1] = target: T1, CD47 (membrane preparation from MEC-1 cells) (Homo sapiens, UniProt Q08722); assay: Binding affinity by biolayer interferometry (Octet RED96) on biotinylated MEC-1 cell membrane preparation; settings: Table 5; apparent Kd; biolayer interferometry; read-out: Kd (BI)
T1 construct: MEC-1 cell membrane preparation were biotinylated with the EZ-Link NHS-PEG4-Biotin kit; endogenous in cells; host or cells: MEC-1 cells (membrane preparation)
Method: The binding affinities of peptides for a membrane preparation from MEC-1 cells were measured by biolayer interferometry on an Octet RED96 System (Pall FortéBio Corp., Menlo Park, Calif.).
The binding affinities of peptides for a membrane preparation from MEC-1 cells were measured by biolayer interferometry on an Octet RED96 System (Pall FortéBio Corp., Menlo Park, Calif.). This system monitors interference of light reflected from two sources (an internal reflection surface and the liquid/solid interface of a fiber optic sensor) to measure the rate of binding of molecules to the biosensor surface.
MEC-1 cell membrane preparation were biotinylated with the EZ-Link NHS-PEG4-Biotin kit from Thermo-Scientific. Biotinylated membranes were then loaded onto SuperStreptavidin (SSA) biosensors (Pall FortéBio Corp.) at empirically determined concentrations.
In order to highlight the pharmacological properties of these peptides, a systematic SAR study by the development of a binding assay allowing to the assessment of the affinity of the 4N1K analogues to CD47 was initiated. […] An Ala-scan to identify the pharmacophores of 4N1K was implemented.
The binding affinities of peptides for a MEC-1 cells membrane preparation were measured by biolayer interferometry on an Octet RED96 System (Pall FortéBio Corp., Menlo Park, Calif.). This system monitors interference of light reflected from two sources (an internal reflection surface and the liquid/solid interface of a fiber optic sensor) to measure the rate of binding of molecules to the biosensor surface. MEC-1 cells membrane preparation is biotinylated with the EZ-Link NHS-PEG4-Biotin kit from Thermo-Scientific and excess biotin is removed using desalting column from Thermo-Scientific. Biotinylated membranes are then loaded onto SuperStreptavidin (SSA) biosensors (Pall FortéBio Corp.) at empirically determined concentrations. […] Typically, the biosensors were pre-equilibrated in PBS containing either biotinylated membranes or biocytine 100 μg/mL. Biosensors are then equilibrated in assay buffer for 10 min, brought to baseline in assay buffer for 60 sec. and transferred to wells containing peptide in dose-response (association for 120 sec. and dissociation for 300 sec.). The double reference with either membrane-loaded biosensors without any peptide dose-response or biocytine-loaded biosensors with each peptide dose-response were run in parallel for background signal double subtractions. Binding kinetics were calculated using the FortéBio Data Analysis v8.2 software.

MEC-1 cells = assay: MEC-1 cell death (PCD) after 2 h peptide treatment; type: cell-based; settings: Table 4
Method: Then the peptides structures were tested via NMR and X-ray. The peptides were also tested for their activity on MEC-1 and their KDs and Retention times on LCMS were determined.

OSU cells = assay: Deaths on OSU cells treated with PKT16 or PKT16-FF (FIG. 4); type: cell-based; settings: 6 hours, control 9.5%
Method: FIG. 4: compares deaths on OSU cells treated with PKT16 or PKT16-FF. For PKT16, it can be seen that the reported deaths are of 11.1, 17.9 and 52.7% for concentrations of 25 μM, 50 μM and 100 μM respectively. For PKT16-FF, it can be seen that the reported deaths are of 16.6, 38.3 and 82.4% for concentrations of 25 μM, 50 μM and 100 μM respectively. The control test provided 9.5% death of the cells.
It was synthesized using common solide phase peptide synthesis technics as mentioned above.

[2] = test system: B CLL cells that have the C481S mutation BTK gene; assay: Sensitivity of ibrutinib-resistant B CLL cells to PKT16; type: cell-based; settings: resistance to Ibrutinib
CLL cells = assay: Cell death (Annexin-V and PI co-positivity) in CLL cells (FIG. 2); type: cell-based; settings: 6 h
Method: FIG. 2A: cell death, measured as Annexin-V and PI co-positivity, was assessed leukemic cells treated 6 h with different concentrations of PKT16 or PKHB1. The data in the plot are the mean±s.d. (n=5). FIG. 2B: cell death induced by PKT16 (100 μM, 6 h) was measured in B-cells from twenty healthy donors and forty CLL patients. The percentages refer to the mean of the Annexin-V/PI-positive staining

T1 sequence (Q08722 19-323): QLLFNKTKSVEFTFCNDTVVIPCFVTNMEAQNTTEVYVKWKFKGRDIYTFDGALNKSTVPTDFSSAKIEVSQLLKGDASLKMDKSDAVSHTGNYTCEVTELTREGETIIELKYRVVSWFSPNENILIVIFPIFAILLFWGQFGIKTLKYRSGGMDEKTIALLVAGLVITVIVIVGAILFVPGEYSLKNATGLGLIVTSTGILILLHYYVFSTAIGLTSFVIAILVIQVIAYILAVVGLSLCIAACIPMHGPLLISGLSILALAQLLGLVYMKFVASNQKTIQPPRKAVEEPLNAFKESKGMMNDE

CCCC[C@H](NC(=O)[C@@H](NC(=O)[C@@H](NC(=O)[C@H](Cc1ccc(O)cc1)NC(=O)[C@H](Cc1ccccc1)NC(=O)[C@H](CCCNC(=N)N)N(C)C(=O)[C@H](N)CCCCN)C(C)C)C(C)C)C(=O)N[C@@H](Cc1c[nH]c2ccccc12)C(=O)N[C@@H](CCCCN)C(=O)N[C@H](CCCCN)C(=O)O [PKT16, H-(D)K ψ(CONMe)R F Y V V X W K (D)K-OH] (H-[dK][NMeR]FYVV[Nle]WK[dK]-OH)
Kd [1]: 74 µM | Cell Death (MEC-1, 2 h) (MEC-1 cells): 68% | deaths on OSU cells (OSU cells; 25 μM): 11.1% | deaths on OSU cells (OSU cells; 50 μM): 17.9% | deaths on OSU cells (OSU cells; 100 μM): 52.7% | sensitivity to treatment with PKT16 [2]: sensitive | PCD activity relative to PKHB1 (CLL cells): improved PCD activity

Source: patent publication US11759496B2, “Compounds and pharmaceutical use thereof in the treatment of cancer” (priority 2016, dated 2023)
